pEC50: −log10 of the molar value.
Biological target: T1, LXRβ (Homo sapiens, UniProt P55055)
T1 construct: Co-transfection expression plasmids, comprising full-length LXRα (pCMX-h LXRα or LXRβ (pCMX-hLXRβ)); expressed in transfected cells; host or cells: CV-1 African green monkey kidney cells, transient transfection with pCMX-hLXRβ
T1 sequence (P55055 1-460): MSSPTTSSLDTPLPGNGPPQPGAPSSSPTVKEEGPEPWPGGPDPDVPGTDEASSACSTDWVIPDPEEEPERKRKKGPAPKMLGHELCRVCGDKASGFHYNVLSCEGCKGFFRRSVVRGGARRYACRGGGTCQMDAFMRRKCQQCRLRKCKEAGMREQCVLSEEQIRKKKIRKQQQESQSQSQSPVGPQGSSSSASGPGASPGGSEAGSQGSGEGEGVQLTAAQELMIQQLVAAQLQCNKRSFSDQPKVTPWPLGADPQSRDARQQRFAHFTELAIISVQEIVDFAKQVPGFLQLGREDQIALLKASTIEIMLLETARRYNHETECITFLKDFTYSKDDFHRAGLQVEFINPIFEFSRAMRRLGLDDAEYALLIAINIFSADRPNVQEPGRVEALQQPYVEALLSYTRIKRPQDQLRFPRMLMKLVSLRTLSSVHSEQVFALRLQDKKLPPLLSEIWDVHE
T1 sequence (P19793 1-462 partner): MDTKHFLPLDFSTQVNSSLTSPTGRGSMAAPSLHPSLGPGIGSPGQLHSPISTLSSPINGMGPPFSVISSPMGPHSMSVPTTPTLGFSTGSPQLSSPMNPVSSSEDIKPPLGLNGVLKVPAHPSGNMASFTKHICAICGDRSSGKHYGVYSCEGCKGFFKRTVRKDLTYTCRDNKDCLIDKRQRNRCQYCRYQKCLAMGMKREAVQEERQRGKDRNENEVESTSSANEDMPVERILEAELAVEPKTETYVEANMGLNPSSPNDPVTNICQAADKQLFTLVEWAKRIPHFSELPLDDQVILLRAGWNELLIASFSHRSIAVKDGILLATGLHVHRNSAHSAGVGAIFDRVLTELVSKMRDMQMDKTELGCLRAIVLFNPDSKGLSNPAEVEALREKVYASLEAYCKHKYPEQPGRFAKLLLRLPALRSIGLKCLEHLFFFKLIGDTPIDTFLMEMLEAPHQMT
Assay: LXR/LXRE co-transfection assay (luciferase reporter) in CV-1 cells, LXRβ
Format: cell-based
Settings: for pEC50: CV-1 cells transfected with pCMX-hLXRβ and LXREx1-Tk-Luciferase, 20 hours incubation, read-out: LXRbeta agonism EC50; for Emax: CV-1 cells, relative to maximum response of high control N-(3-((4-fluorophenyl)-(naphthalene-2-sulfonyl)amino)propyl)-2,2-dimethylpropionamide, read-out: LXRbeta % EFFICACY
Method in brief: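 Luciferase read-out after 20 h compound treatment at 37 °C of CV-1 cells carrying transfected hLXRβ plus one-copy LXRE reporter, endogenous RXR partnering. Sigmoidal fit of 10-point half-log curves (4 wells each) gave EC50; % efficacy versus maximal response of the propionamide reference agonist.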

Row | Compound | pEC50 | Emax [%]
1 | Cc1nc(-c2ccc(OC(F)(F)F)cc2)c(-c2cc(-c3cnc(CO)c(S(C)(=O)=O)c3)ccc2-n2cc(Cl)c(C(F)(F)F)n2)o1 [Example 314, (5-(4-(4-chloro-3-(trifluoromethyl)-1H-pyrazol-1-yl)-3-(2-methyl-4-(4-(trifluoromethoxy)phenyl)oxazol-5-yl)phenyl)-3-(methylsulfonyl)pyridin-2-yl)methanol] | 7.96 | 68
2 | Cc1nc(-c2ccc(OC(F)(F)F)cc2)c(-c2cc(-c3cc(F)c(CO)c(S(C)(=O)=O)c3)ccc2-n2ccc(C3CC3)n2)o1 [Example 315, (4′-(3-cyclopropyl-1H-pyrazol-1-yl)-3-fluoro-3′-(2-methyl-4-(4-(trifluoromethoxy)phenyl)oxazol-5-yl)-5-(methylsulfonyl)-[1,1′-biphenyl]-4-yl)methanol] | 7.15 | 48
3 | Cc1nc(-c2ccc(OC(F)(F)F)cc2)c(-c2cc(-c3cccc(S(C)(=O)=O)c3)ccc2-n2ccc(C(C)(C)O)n2)o1 [Example 316, 2-(1-(3-(2-methyl-4-(4-(trifluoromethoxy)phenyl)oxazol-5-yl)-3′-(methylsulfonyl)biphenyl-4-yl)-1H-pyrazol-3-yl)propan-2-ol] | 6.53 | 24
4 | Cc1nc(-c2ccc(OC(F)(F)F)cc2)c(-c2cc(-c3cc(F)c(CO)c(S(C)(=O)=O)c3)ccc2-n2ccc(C(C)(C)O)n2)o1 [Example 317, 2-(1-(3′-fluoro-4′-(hydroxymethyl)-3-(2-methyl-4-(4-(trifluoromethoxy)phenyl)oxazol-5-yl)-5′-(methylsulfonyl)biphenyl-4-yl)-1H-pyrazol-3-yl)propan-2-ol] | 7.04 | 27
5 | Cc1nc(-c2ccc(OC(F)(F)F)cc2)c(-c2cc(-c3cccc(S(C)(=O)=O)c3)ccc2-n2ccc(C#N)n2)o1 [Example 318, 1-(3-(2-methyl-4-(4-(trifluoromethoxy)phenyl)oxazol-5-yl)-3′-(methylsulfonyl)biphenyl-4-yl)-1H-pyrazole-3-carbonitrile] | 6.61 | 84
6 | Cc1nc(-c2ccc(OC(F)(F)F)cc2)c(-c2cc(-c3cc(F)c(CO)c(S(C)(=O)=O)c3)ccc2-n2ccc(C#N)n2)o1 [Example 319, 1-(3′-fluoro-4′-(hydroxymethyl)-3-(2-methyl-4-(4-(trifluoromethoxy)phenyl)oxazol-5-yl)-5′-(methylsulfonyl)biphenyl-4-yl)-1H-pyrazole-3-carbonitrile] | 7.15 | 80
7 | Cc1nc(-c2ccc(OC(F)(F)F)cc2)c(-c2cc(-c3cc(F)c(CO)c(S(C)(=O)=O)c3)ccc2-n2ccc(C(N)=O)n2)o1 [Example 320, 1-(3′-fluoro-4′-(hydroxymethyl)-3-(2-methyl-4-(4-(trifluoromethoxy)phenyl)oxazol-5-yl)-5′-(methylsulfonyl)biphenyl-4-yl)-1H-pyrazole-3-carboxamide] | 6.33 | 58
8 | Cc1nc(-c2ccc(OC(F)(F)F)cc2)c(-c2cc(-c3cccc(S(C)(=O)=O)c3)ccc2-n2ccc(CO)n2)o1 [Example 321, (1-(3-(2-methyl-4-(4-(trifluoromethoxy)phenyl)oxazol-5-yl)-3′-(methylsulfonyl)biphenyl-4-yl)-1H-pyrazol-3-yl)methanol] | 5.84 | 40
9 | Cc1nc(-c2ccc(OC(F)(F)F)cc2)c(-c2cc(-c3cc(F)c(CO)c(S(C)(=O)=O)c3)ccc2-n2ccc(CO)n2)o1 [Example 322, (3-fluoro-4′-(3-(hydroxymethyl)-1H-pyrazol-1-yl)-3′-(2-methyl-4-(4-(trifluoromethoxy)phenyl)oxazol-5-yl)-5-(methylsulfonyl)biphenyl-4-yl)methanol] | 5.95 | 58
10 | Cc1nc(-c2ccc(OC(F)(F)F)cc2)c(-c2cc(-c3cc(F)c(CO)c(S(C)(=O)=O)c3)ccc2-n2nc(C(F)(F)F)cc2C2CC2)o1 [Example 323, (4′-(5-cyclopropyl-3-(trifluoromethyl)-1H-pyrazol-1-yl)-3-fluoro-3′-(2-methyl-4-(4-(trifluoromethoxy)phenyl)oxazol-5-yl)-5-(methylsulfonyl)biphenyl-4-yl)methanol] | 6.02 | 48
11 | Cc1nc(-c2ccc(OC(F)(F)F)cc2)c(-c2cc(-c3cccc(S(C)(=O)=O)c3)ccc2-n2nc(C(F)(F)F)cc2C2CC2)o1 [Example 324, 5-(4-(5-cyclopropyl-3-(trifluoromethyl)-1H-pyrazol-1-yl)-3′-(methylsulfonyl)biphenyl-3-yl)-2-methyl-4-(4-(trifluoromethoxy)phenyl)oxazole] | 5.91 | 44
12 | Cc1nc(-c2ccc(OC(F)F)cc2)c(-c2cc(-c3cc(F)c(CO)c(S(C)(=O)=O)c3)ccc2-n2nc(C(F)(F)F)cc2C)o1 [Example 325, (3′-(4-(4-(difluoromethoxy)phenyl)-2-methyloxazol-5-yl)-3-fluoro-4′-(5-methyl-3-(trifluoromethyl)-1H-pyrazol-1-yl)-5-(methylsulfonyl)biphenyl-4-yl) methanol] | 7.92 | 78
13 | Cc1nc(-c2ccc(OC(F)F)cc2)c(-c2cc(-c3ccc(CO)c(S(C)(=O)=O)c3)ccc2-n2nc(C(F)(F)F)cc2C)o1 [Example 326, (3′-(4-(4-(difluoromethoxy)phenyl)-2-methyloxazol-5-yl)-4′-(5-methyl-3-(trifluoromethyl)-1H-pyrazol-1-yl)-3-(methylsulfonyl)biphenyl-4-yl)methanol] | 7.82 | 77
14 | Cc1nc(-c2ccc(OC(F)F)cc2)c(-c2cc(-c3cccc(S(C)(=O)=O)c3)ccc2-n2nc(C(F)(F)F)cc2C)o1 [Example 327, 4-(4-(difluoromethoxy)phenyl)-2-methyl-5-(4-(5-methyl-3-(trifluoromethyl)-1H-pyrazol-1-yl)-3′-(methylsulfonyl)biphenyl-3-yl)oxazole] | 7.57 | 78
15 | Cc1nc(-c2ccc3c(c2)OC(F)(F)O3)c(-c2cc(-c3cccc(S(C)(=O)=O)c3)ccc2-n2nc(C(F)(F)F)cc2C)o1 [Example 328, 4-(2,2-difluorobenzo[d][1,3]dioxol-5-yl)-2-methyl-5-(4-(5-methyl-3-(trifluoromethyl)-1H-pyrazol-1-yl)-3′-(methylsulfonyl)biphenyl-3-yl)oxazole] | 7.62 | 112
16 | Cc1nc(-c2ccc3c(c2)OC(F)(F)O3)c(-c2cc(-c3cc(F)c(CO)c(S(C)(=O)=O)c3)ccc2-n2nc(C(F)(F)F)cc2C)o1 [Example 329, (3′-(4-(2,2-difluorobenzo[d][1,3]dioxol-5-yl)-2-methyloxazol-5-yl)-3-fluoro-4′-(5-methyl-3-(trifluoromethyl)-1H-pyrazol-1-yl)-5-(methylsulfonyl)biphenyl-4-yl)methanol] | 8.52 | 92
17 | Cc1nc(-c2ccc3c(c2)OC(F)(F)O3)c(-c2cc(-c3ccc(CO)c(S(C)(=O)=O)c3)ccc2-n2nc(C(F)(F)F)cc2C)o1 [Example 330, (3′-(4-(2,2-difluorobenzo[d][1,3]dioxol-5-yl)-2-methyloxazol-5-yl)-4′-(5-methyl-3-(trifluoromethyl)-1H-pyrazol-1-yl)-3-(methylsulfonyl)biphenyl-4-yl)methanol] | 8.30 | 64
18 | Cc1nc(-c2ccc(OC(F)(F)F)cc2)c(-c2cc(-c3cccc(S(C)(=O)=O)c3)ccc2-n2nc(C(F)(F)F)cc2C)o1 [Example 331, 2-methyl-5-(4-(5-methyl-3-(trifluoromethyl)-1H-pyrazol-1-yl)-3′-(methylsulfonyl)biphenyl-3-yl)-4-(4-(trifluoromethoxy)phenyl)oxazole] | 7.21 | 82
19 | Cc1nc(-c2ccc(OC(F)(F)F)cc2)c(-c2cc(-c3cc(F)c(CO)c(S(C)(=O)=O)c3)ccc2-n2nc(C(F)(F)F)cc2C)o1 [Example 332, (3-fluoro-4′-(5-methyl-3-(trifluoromethyl)-1H-pyrazol-1-yl)-3′-(2-methyl-4-(4-(trifluoromethoxy)phenyl)oxazol-5-yl)-5-(methylsulfonyl)biphenyl-4-yl)methanol] | 7.46 | 70

Source: US9751869B2, “LXR modulators” (BRISTOL-MYERS SQUIBB COMPANY, priority 2013, dated 2017)
